Test results taken from patent US20110201648A1, “POLY-HETEROARYL DERIVATIVES FOR THE TREATMENT OF CANCER” (INSTITUT CURIE, priority 2008, published 2011).

Columns and labels:
[1] = system: ds17 (17 base-pair duplex-DNA); assay: Fluorescence titration with ds17; format: binding; details: 0.25 μM compound, cacodylate buffer + 100 mM KCl, λex=340 nm
Description: The quadruplex-over duplex-selectivity is evaluated through fluorescence titrations by comparison of experiments carried out with 22AG (see above) and with a short duplex-DNA: ds17, which is a 17 base-pair duplex-DNA that represents a biological sequence used in previous studies (28); the sequences of the two complementary strands are the following: [5′-CCAGTTCGTAGTAACCC-3′]/[5′-GGGTTACTACGAACTGG-3′]. Duplex-structure is prepared by heating the two corresponding complementary strands at 90° C. for 5 min in a 10 mM sodium cacodylate buffer pH 7.3, 100 mM KCl followed by a slow cooling over 6 hrs. Concentrations are determined by UV-Vis measurements (after thermal denaturation, 5 min at 85° C.) at 260 nm before use.

[2] = system: FPf8T (plasmodium telomeric quadruplex-DNA); assay: FRET-melting assay with FPf8T; format: binding, Plasmodium falciparum; details: 0.2 μM FPf8T, 1 μM compound
Description: (§1) Stabilization, and so interaction, of compounds with quadruplex-structure is monitored via FRET-melting assay, in a version that also enables the determination of the quadruplex-over duplex-DNA selectivity as well as the intra-quadruplex selectivity (17).
(§2) FRET assay is performed with oligonucleotides that mimic the human or plasmodium telomeric sequences, and equipped with FRET partners at each extremities: F21T (FAM-G3[T2AG3]3-Tamra,) FPf1T (FAM-G3[T3AG3]3-Tamra) and FPf8T (FAM-G3[T2CAG3]3-Tamra) with FAM: 6-carboxyfluorescein and Tamra: 6-carboxy-tetramethylrhodamine). Measurements were made with excitation at 492 nm and detection at 516 nm.
(§3) Fluorescence melting were carried out. The results are given on FIG. 3A-FIG. 3C. The experiments were carried out with 0.2 μM of F21T, FPf1T or FPf8T in a buffer containing 10 mM lithium cacodylate pH 7.2 and 100 mM NaCl or KCl (see example of F21T below, NaCl (left) and KCl (right)); the melting of the quadruplex-DNA was monitored alone and in the presence of 1 μM (5 equiv.) of compound 3.

[3] = system: HT1080GFP-POT1 human fibrosarcoma and U20S human osteosarcoma cells; assay: Inhibition of cell proliferation, viable cell count with trypan blue; format: cell-based; details: 72 hours, read-out: IC50 proliferation of cancer cells
Description: The HT1080 human fibrosarcoma cell line stably transfected with pEGFP-POT1 vector (HT1080GFP-POT1) has been previously described (32) and U20S human osteosarcoma was from American Type Culture Collection (Rockville, USA). Cells were grown in Dublecco's modified Eagles's medium (Invitrogen) supplemented with 10% v/v fetal bovine serum and with 400 μg/ml geneticin for HT1080GFP-POT1. Cells were plated in 6-wells culture plates on day 0 at 4.5×10^4 cells/well in the presence of different concentrations of compound 3 (10, 3, 1, 0.3 and 0.1 μM), each concentration in duplicate, and cultured for further 72 hours. At day 3, cells were washed with 1×PBS and trypsinized. For each treated cell sample, the number of viable cells was determined in the presence of trypan blue. Results are given on FIG. 15A and FIG. 15B. They correspond to the relative cell number in percent as compared to control untreated cells defined as 100%.

[4] = Fluorescence quantum yield; format: physicochemical; details: anthracene in ethanol as reference
Description: Pyridine-based polyheteroaromatic compounds detailed in this study are characterized by a strong fluorescence. Remarkably, the quantum yield is not affected by the nature of the solvent they are used in, from pure organic (e.g. DMSO) to physiological conditions (e.g. buffer: 10 mM sodium cacodylate+100 mM KCl, pH 7.2, see Table). The modification of the fluorescence properties of studied compounds upon interaction with DNA enables to compare their apparent binding affinity for several quadruplexes of biological relevance (27).
NB: the quantum yields (and standard deviations (s.d.)) of compound 3 were measured in CH2Cl2 (DCM) and water, with anthracene in ethanol as reference.

c-myc quadruplex-DNA = assay: Fluorescence titration with c-myc; format: binding; details: 0.25 μM compound, cacodylate buffer + 100 mM KCl, λex=340 nm
Description: (§4) The intra-quadruplex selectivity is evaluated through fluorescence titrations by comparison of experiments carried out with 22AG (see above) and with two other quadruplex-structures: c-myc and c-kit2. The formation of these two quadruplex-DNAs is currently highly suspected in the promoter region of c-myc (see above) and c-kit (22; 29 and 30)oncogenes. The sequences are the following: c-myc: [5′-[…]-3′] and c-kit2: [(5′-[…]-3′]; Quadruplex-structures are prepared by heating the corresponding oligonucleotide at 90° C. for 5 min in a 10 mM sodium cacodylate buffer pH 7.2, 100 mM KCl and cooling in ice to favor the intramolecular folding by kinetic trapping. Concentrations are determined by UV-Vis measurements (after thermal denaturation, 5 min at 85° C.) at 260 nm before use.

c-kit2 quadruplex-DNA [5] = assay: Fluorescence titration with c-kit2; format: binding; details: 0.25 μM compound, cacodylate buffer + 100 mM KCl, λex=340 nm
Description: as §4

[6] = system: FPf1T (plasmodium telomeric quadruplex-DNA); assay: FRET-melting assay with FPf1T; format: binding, Plasmodium falciparum; details: 0.2 μM FPf1T, 1 μM compound
Description: as §1, §2, §3

c-kit2 quadruplex-DNA [7] = assay: Circular dichroism with c-kit2; format: binding; details: 3 μM c-kit2, 30 μM compound, 100 mM KCl, 285 nm
Description: Circular dichroism (CD) enables a deep study of the modification of the DNA structure upon the binding of a ligand; it thus reflects the affinity of the ligand to its target, and can also provide insight into its binding mode (Paramasivan et al, Methods, 2007, 43, 324).
The intra-quadruplex selectivity is evaluated through CD by comparison of experiments carried out with 22AG (see above) and with two other quadruplex-structures: c-myc and c-kit2 (see above). The results are given on FIG. 11A and FIG. 11B. To a 3 μM solution of both c-kit2 (left) and c-myc (right) in cacodylate buffer (10 mM sodium cacodylate+100 mM KCl) is added an excess of compound 3 (30 μM, 10 equiv.).

c1cc(-c2cnc(-c3cccc(-c4cnco4)n3)o2)nc(-c2cnc(-c3cccc(-c4cnco4)n3)o2)c1 [compound 3, 2,6-bis{2-[6-(oxazol-5-yl)pyridin-2-yl]oxazol-5-yl}pyridine]
fluorescence of compound upon addition of ds17 [1]: do not result in a progressive quench of the fluorescence
ΔT1/2 FPf8T ([2]; K+ (100 mM KCl)): 1.5 °C
ΔT1/2 FPf8T ([2]; Na+ (100 mM NaCl)): 16.3 °C
IC50 [3]: 100 to 1000 nM
Quantum yield ([4]; DCM (CH2Cl2)): 50.35%
Quantum yield ([4]; Water): 50.37%
fluorescence of compound upon addition of c-myc (c-myc quadruplex-DNA): progressive quench of the fluorescence
melting point: > 250 °C
fluorescence of compound upon addition of c-kit2 (c-kit2 quadruplex-DNA [5]): progressive quench of the fluorescence
ΔT1/2 FPf1T ([6]; K+ (100 mM KCl)): 2.1 °C
ΔT1/2 FPf1T ([6]; Na+ (100 mM NaCl)): 20.4 °C
CD signal of c-kit2 (c-kit2 quadruplex-DNA [7]): modification of the amplitude of the CD signal
